# Columns and labels:
# [1] = Human plasma half-life assay; assay type: in vitro ADME; conditions: 37° C., LC-MS, read-out: Human Plasma T½ (converted)
# Description: (§1) B. Human and Rat Plasma Half-Life Assay
# (§2) 50 μl was removed at various times, like at 0, 1, 2, 3, 4, 8, 24, 32, 48, 56, 72 hours, mixed with 5 μl formic acid and 150 μL acetonitrile in a microcentrifuge tube, vertexed, and centrifuged for 10 minutes at 10 K rpm. The supernatant was transferred to an injection vial and analyzed by LC-MS. The LC-MS system consisted of an API4000 mass spectrometer with an ESI probe. Positive ion mode and full scan detection were used. HPLC separation was carried out on a Luna 3μ. C8 (2), 2×30 mm column with a gradient from 90% A to 90% B in 10 minutes at a flow rate of 0.3 ml/min. Buffer A was 1% formic acid in water and buffer B was 1% formic acid acetonitrile.
# [2] = biological target: T1, human recombinant GIP receptor (Homo sapiens, UniProt P48546); test: In vitro hGIP receptor binding assay
# T1 construct: expressed in transfected cells; host or cells: CHO-K1 clonal cells (membrane preparation)
# T1 sequence (P48546 22-466): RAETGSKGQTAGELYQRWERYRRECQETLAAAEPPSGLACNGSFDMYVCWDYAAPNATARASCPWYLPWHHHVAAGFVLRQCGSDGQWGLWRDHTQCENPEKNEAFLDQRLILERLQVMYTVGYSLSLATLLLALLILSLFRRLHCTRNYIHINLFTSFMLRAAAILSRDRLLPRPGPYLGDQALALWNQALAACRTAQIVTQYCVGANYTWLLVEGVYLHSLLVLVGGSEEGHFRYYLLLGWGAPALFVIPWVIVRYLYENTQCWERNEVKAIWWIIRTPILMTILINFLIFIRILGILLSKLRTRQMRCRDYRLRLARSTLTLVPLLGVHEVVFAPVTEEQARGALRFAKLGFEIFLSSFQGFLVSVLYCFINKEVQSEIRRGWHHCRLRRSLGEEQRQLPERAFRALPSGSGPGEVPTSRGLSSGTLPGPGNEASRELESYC
# Description: A. In Vitro hGIP Receptor Binding Assay […] The incubations were terminated by rapid filtration through GF/C filters (pre-soaked in 0.5% polyethylenimine) using a Brandel filtration manifold. Each tube and filter were then washed three times with 5-ml aliquots of ice-cold buffer.
# [3] = Rat plasma half-life assay; assay type: in vitro ADME; conditions: 37° C., LC-MS, read-out: Rat Plasma T½ (converted)
# Description: as §1, §2
SMILES,half-life at 0.1 mg/ml [1] [h],Ki [2] [nM],half-life at 0.1 mg/ml [3] [h]
"CC[C@H](C)[C@H](NC(=O)[C@H](CCCCN)NC(=O)[C@H](CC(=O)O)NC(=O)[C@H](CCSC)NC(=O)[C@H](C)NC(=O)[C@@H](NC(=O)C1(NC(=O)[C@H](Cc2ccc(O)cc2)NC(=O)[C@H](CC(=O)O)NC(=O)[C@H](CO)NC(=O)[C@@H](NC(=O)[C@H](Cc2ccccc2)NC(=O)[C@@H](NC(=O)CNC(=O)[C@H](CCC(=O)O)NC(=O)C(C)(C)NC(=O)[C@@H](N)Cc2ccsc2)[C@@H](C)O)[C@@H](C)CC)CCCC1)[C@@H](C)CC)C(=O)N[C@@H](Cc1c[nH]cn1)C(=O)N[C@@H](CCC(N)=O)C(=O)N[C@@H](CCC(N)=O)C(=O)N[C@@H](CC(=O)O)C(=O)N[C@@H](Cc1ccccc1)C(=O)N[C@H](C(=O)N[C@@H](CC(N)=O)C(=O)N[C@@H](Cc1c[nH]c2ccccc12)C(=O)N[C@@H](CC(C)C)C(=O)N[C@@H](CC(C)C)C(=O)N[C@@H](C)C(=O)N[C@@H](CCC(N)=O)C(=O)N[C@@H](CCCCN)C(=O)NCC(=O)N[C@@H](CCCCN)C(=O)N[C@@H](CCCCN)C(=O)N[C@@H](CC(N)=O)C(=O)N[C@@H](CC(=O)O)C(=O)N[C@@H](Cc1c[nH]c2ccccc12)C(=O)N[C@@H](CCCCN)C(=O)N[C@@H](Cc1c[nH]cn1)C(=O)N[C@@H](CC(N)=O)C(=O)N[C@H](C(=O)NC1(C(=O)N[C@@H](CCC(N)=O)C(=O)O)CCCC1)[C@@H](C)CC)C(C)C [Example 37, (3Thi^1, Aib^2, A5c^11, 41)hGIP(1-42)-OH]",29.3,7.05,> 72
"CC[C@H](C)[C@H](NC(=O)[C@H](CCCCN)NC(=O)[C@H](CC(=O)O)NC(=O)[C@H](CCSC)NC(=O)[C@H](C)NC(=O)[C@@H](NC(=O)C1(NC(=O)[C@H](Cc2ccc(O)cc2)NC(=O)[C@H](CC(=O)O)NC(=O)[C@H](CO)NC(=O)[C@@H](NC(=O)[C@H](Cc2ccccc2)NC(=O)[C@@H](NC(=O)CNC(=O)[C@H](CCC(=O)O)NC(=O)C(C)(C)NC(=O)[C@@H](N)CCc2ccc(O)cc2)[C@@H](C)O)[C@@H](C)CC)CCCC1)[C@@H](C)CC)C(=O)N[C@@H](Cc1c[nH]cn1)C(=O)N[C@@H](CCC(N)=O)C(=O)N[C@@H](CCC(N)=O)C(=O)N[C@@H](CC(=O)O)C(=O)N[C@@H](Cc1ccccc1)C(=O)N[C@H](C(=O)N[C@@H](CC(N)=O)C(=O)N[C@@H](Cc1c[nH]c2ccccc12)C(=O)N[C@@H](CC(C)C)C(=O)N[C@@H](CC(C)C)C(=O)N[C@@H](C)C(=O)N[C@@H](CCC(N)=O)C(=O)N[C@@H](CCCCN)C(=O)NCC(=O)N[C@@H](CCCCN)C(=O)N[C@@H](CCCCN)C(=O)N[C@@H](CC(N)=O)C(=O)N[C@@H](CC(=O)O)C(=O)N[C@@H](Cc1c[nH]c2ccccc12)C(=O)N[C@@H](CCCCN)C(=O)N[C@@H](Cc1c[nH]cn1)C(=O)N[C@@H](CC(N)=O)C(=O)N[C@H](C(=O)N[C@H](C(=O)N[C@@H](CCC(N)=O)C(=O)N[C@@H](Cc1c[nH]cn1)C(=O)O)[C@@H](C)O)[C@@H](C)CC)C(C)C [Example 80, (hTyr^1, Aib^2, A5c^11, His^43)hGIP(1-43)-OH]",22.6,9.42,18.4
"CCCC[C@H](NC(=O)[C@H](C)NC(=O)[C@@H](NC(=O)C1(NC(=O)[C@H](Cc2ccc(O)cc2)NC(=O)[C@H](CC(=O)O)NC(=O)[C@H](CO)NC(=O)[C@@H](NC(=O)[C@H](Cc2ccccc2)NC(=O)[C@@H](NC(=O)CNC(=O)[C@H](CCC(=O)O)NC(=O)C(C)(C)NC(=O)[C@@H](N)Cc2ccc(N)cc2)[C@@H](C)O)[C@@H](C)CC)CCCC1)[C@@H](C)CC)C(=O)N[C@@H](CC(=O)O)C(=O)N[C@@H](CCCCN)C(=O)N[C@H](C(=O)N[C@@H](Cc1c[nH]cn1)C(=O)N[C@@H](CCC(N)=O)C(=O)N[C@@H](CCC(N)=O)C(=O)N[C@@H](CC(=O)O)C(=O)N[C@@H](Cc1ccccc1)C(=O)N[C@H](C(=O)N[C@@H](CC(N)=O)C(=O)N[C@@H](Cc1c[nH]c2ccccc12)C(=O)N[C@@H](CC(C)C)C(=O)N[C@@H](CC(C)C)C(=O)N[C@@H](C)C(=O)N[C@@H](CCC(N)=O)C(=O)N[C@@H](CCCCN)C(=O)NCC(=O)N[C@@H](CCCCN)C(=O)N[C@@H](CCCCN)C(=O)N[C@@H](CC(N)=O)C(=O)N[C@@H](CC(=O)O)C(=O)N[C@@H](Cc1c[nH]c2ccccc12)C(=O)N[C@@H](CCCCN)C(=O)N[C@@H](Cc1c[nH]cn1)C(=O)N[C@@H](CC(N)=O)C(=O)N[C@H](C(=O)N[C@H](C(=O)N[C@@H](CCC(N)=O)C(=O)O)[C@@H](C)O)[C@@H](C)CC)C(C)C)[C@@H](C)CC [Example 18, (4NH2-Phe^1, Aib^2, A5c^11, Nle^14)hGIP(1-42)-OH]",> 72,3.4,32.1
"CC[C@H](C)[C@H](NC(=O)[C@H](CCCCN)NC(=O)[C@H](CC(=O)O)NC(=O)[C@H](CCSC)NC(=O)[C@H](C)NC(=O)[C@@H](NC(=O)C1(NC(=O)[C@H](Cc2ccc(O)cc2)NC(=O)[C@H](CC(=O)O)NC(=O)[C@H](CO)NC(=O)[C@@H](NC(=O)[C@H](Cc2ccccc2)NC(=O)[C@@H](NC(=O)CNC(=O)[C@H](CCC(=O)O)NC(=O)C(C)(C)NC(=O)[C@@H](N)Cc2cccc(F)c2)[C@@H](C)O)[C@@H](C)CC)CCCC1)[C@@H](C)CC)C(=O)N[C@@H](Cc1c[nH]cn1)C(=O)N[C@@H](CCC(N)=O)C(=O)N[C@@H](CCC(N)=O)C(=O)N[C@@H](CC(=O)O)C(=O)N[C@@H](Cc1ccccc1)C(=O)N[C@H](C(=O)N[C@@H](CC(N)=O)C(=O)N[C@@H](Cc1c[nH]c2ccccc12)C(=O)N[C@@H](CC(C)C)C(=O)N[C@@H](CC(C)C)C(=O)N[C@@H](C)C(=O)N[C@@H](CCC(N)=O)C(=O)N[C@@H](CCCCN)C(=O)NCC(=O)N[C@@H](CCCCN)C(=O)N[C@@H](CCCCN)C(=O)N[C@@H](CC(N)=O)C(=O)N[C@@H](CC(=O)O)C(=O)N[C@@H](Cc1c[nH]c2ccccc12)C(=O)N[C@@H](CCCCN)C(=O)N[C@@H](Cc1c[nH]cn1)C(=O)N[C@@H](CC(N)=O)C(=O)N[C@H](C(=O)NC1(C(=O)N[C@@H](CCC(N)=O)C(=O)O)CCCC1)[C@@H](C)CC)C(C)C [Example 41, (3F-Phe^1, Aib^2, A5c^11, 41)hGIP(1-42)-OH]",63.6,5.43,> 66
"CCCC[C@H](NC(=O)[C@H](C)NC(=O)[C@@H](NC(=O)C1(NC(=O)[C@H](Cc2ccc(O)cc2)NC(=O)[C@H](CC(=O)O)NC(=O)[C@H](CO)NC(=O)[C@@H](NC(=O)[C@H](Cc2ccccc2)NC(=O)[C@@H](NC(=O)CNC(=O)[C@H](CCC(=O)O)NC(=O)C(C)(C)NC(=O)[C@@H](N)Cc2ccc(F)c(F)c2)[C@@H](C)O)[C@@H](C)CC)CCCC1)[C@@H](C)CC)C(=O)N[C@@H](CC(=O)O)C(=O)N[C@@H](CCCCN)C(=O)N[C@H](C(=O)N[C@@H](Cc1c[nH]cn1)C(=O)N[C@@H](CCC(N)=O)C(=O)N[C@@H](CCC(N)=O)C(=O)N[C@@H](CC(=O)O)C(=O)N[C@@H](Cc1ccccc1)C(=O)N[C@H](C(=O)N[C@@H](CC(N)=O)C(=O)N[C@@H](Cc1c[nH]c2ccccc12)C(=O)N[C@@H](CC(C)C)C(=O)N[C@@H](CC(C)C)C(=O)N[C@@H](C)C(=O)N[C@@H](CCC(N)=O)C(=O)N[C@@H](CCCCN)C(=O)NCC(=O)N[C@@H](CCCCN)C(=O)N[C@@H](CCCCN)C(=O)N[C@@H](CC(N)=O)C(=O)N[C@@H](CC(=O)O)C(=O)N[C@@H](Cc1c[nH]c2ccccc12)C(=O)N[C@@H](CCCCN)C(=O)N[C@@H](Cc1c[nH]cn1)C(=O)N[C@@H](CC(N)=O)C(=O)N[C@H](C(=O)N[C@H](C(=O)N[C@@H](CCC(N)=O)C(=O)O)[C@@H](C)O)[C@@H](C)CC)C(C)C)[C@@H](C)CC [Example 24, (3,4F-Phe^1, Aib^2, A5c^11, Nle^14)hGIP(1-42)-OH]",> 74,15.7,> 74

# — US8999940B2 (Ipsen Pharma S.A.S., priority 2008, dated 2015)
